From patent US10813938B2 (priority 2015, dated 2020)
Converted amounts (≈) assume the structure as drawn.

Key:
[1] = RH stability study (~97% RH, XRPD before/after); conditions: ~97% relative humidity, 1 day, ambient temperature; FIG. 16
physchem = conditions: pH 6.8, aqueous buffer, thermodynamic from solid
Protocol: The injection volume was 15 μL. […] The following gradient was used: […]

| solubility at 24 h (physchem) | SMILES | Solid form after exposure to ~97% RH (XRPD) [1] |
| --- | --- | --- |
|  | Cn1c(=O)c2c(ncn2C)n(C)c1=O [Caffeine] | conversion to the hydrate |
| 24 mg/mL (≈ 52.4 mM) | O=C(O[C@@H]1Cc2c(O)cc(O)cc2O[C@@H]1c1cc(O)c(O)c(O)c1)c1cc(O)c(O)c(O)c1 [EGCG, Epigallocatechin gallate] |  |
